15 compounds from patent US10208020B2, “Substituted amino triazoles useful as human chitinase inhibitors” (OncoArendi Therapeutics S.A., priority 2015, dated 2019) can be followed below.

One experiment addresses recombinant human CHIT1 (Homo sapiens (Human), UniProt Q13231). Put plainly: Human CHIT1 activity assay. Format: biochemical. The following applies: citrate buffer pH 5.2, 37° C., 60 minutes; 4-methylumbelliferyl β-D-N,N′,N″-triacetylchitotriose substrate; read-out: Activity on hCHIT1, IC50.
In another experiment the target is recombinant human AMCase (Homo sapiens (Human), UniProt Q9BZP6). Put plainly: Human AMCase activity assay. The format is biochemical. Conditions: citrate buffer pH 5.2, 37° C., 60 minutes; 4-methylumbelliferyl B-D-N,N′-diacetylchitobioside substrate; read-out: Activity on hAMCase, IC50.

Some results are limits rather than exact numbers.

recombinant human CHIT1, sequence (Q13231 22-466): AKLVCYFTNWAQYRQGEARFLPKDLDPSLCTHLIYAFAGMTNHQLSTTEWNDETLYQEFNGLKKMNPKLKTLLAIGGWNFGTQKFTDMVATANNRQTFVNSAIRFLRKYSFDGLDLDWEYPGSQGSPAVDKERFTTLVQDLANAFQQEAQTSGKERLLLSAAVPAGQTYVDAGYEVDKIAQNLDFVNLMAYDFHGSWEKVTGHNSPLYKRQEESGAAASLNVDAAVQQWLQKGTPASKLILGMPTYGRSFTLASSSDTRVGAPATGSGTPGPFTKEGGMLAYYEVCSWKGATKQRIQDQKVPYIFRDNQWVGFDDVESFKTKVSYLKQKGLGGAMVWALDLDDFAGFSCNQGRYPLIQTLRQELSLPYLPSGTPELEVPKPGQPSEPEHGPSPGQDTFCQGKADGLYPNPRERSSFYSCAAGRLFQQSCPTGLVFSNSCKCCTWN
recombinant human AMCase, sequence (Q9BZP6 22-476): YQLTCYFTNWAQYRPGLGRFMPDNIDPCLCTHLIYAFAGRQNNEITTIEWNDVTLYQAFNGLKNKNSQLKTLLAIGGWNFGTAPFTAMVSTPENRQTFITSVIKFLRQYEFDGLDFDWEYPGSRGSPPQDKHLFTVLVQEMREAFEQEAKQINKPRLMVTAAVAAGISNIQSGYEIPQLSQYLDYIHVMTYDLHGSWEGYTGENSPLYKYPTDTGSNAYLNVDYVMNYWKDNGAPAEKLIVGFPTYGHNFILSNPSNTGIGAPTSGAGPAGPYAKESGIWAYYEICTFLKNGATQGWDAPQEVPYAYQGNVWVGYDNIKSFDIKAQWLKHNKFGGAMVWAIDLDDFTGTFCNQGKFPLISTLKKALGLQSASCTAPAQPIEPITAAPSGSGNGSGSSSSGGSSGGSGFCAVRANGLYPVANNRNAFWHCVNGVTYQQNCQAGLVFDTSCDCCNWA

By IC50 is commonly meant the concentration that gives 50% inhibition. `Nc1nnc(N2CCC(N3CCOC[C@@H]3Cc3ccc(Cl)cc3)CC2)[nH]1` [Example 1, (S)-5-(4-(3-(4-chlorobenzyl)morpholino)piperidin-1-yl)-4H-1,2,4-triazol-3-amine]: on recombinant human CHIT1, the IC50 was less than 100 nM.
Consider `Nc1nnc(N2CCC(N3CCOC[C@@H]3Cc3ccc(Br)cc3)CC2)[nH]1` [Example 3, (S)-5-(4-(3-(4-bromobenzyl)morpholino)piperidin-1-yl)-4H-1,2,4-triazol-3-amine], for which the IC50 on recombinant human CHIT1 was less than 100 nM.
For `CCOC[C@H]1CN(C2CCN(c3nnc(N)[nH]3)CC2)[C@@H](Cc2ccc(Cl)cc2)CO1` [Example 11, 5-(4-((2R,5S)-5-(4-chlorobenzyl)-2-(ethoxymethyl)morpholino)piperidin-1-yl)-4H-1,2,4-triazol-3-amine], the half-inhibitory concentration (IC50) on recombinant human AMCase is less than 100 nM.
Turning to `COC(C)(C)[C@H]1CN(C2CCN(c3nnc(N)[nH]3)CC2)[C@@H](Cc2ccc(Cl)cc2)CO1` [Example 14, 5-(4-((2R,5S)-5-(4-chlorobenzyl)-2-(2-methoxypropan-2-yl)morpholino)piperidin-1-yl)-4H-1,2,4-triazol-3-amine], the IC50 at recombinant human AMCase and at recombinant human CHIT1 was less than 100 nM each time.
Turning to `Nc1nnc(N2CCC(N3CCCC[C@@H]3Cc3ccc(Cl)cc3)CC2)[nH]1` [Example 15, (R)-5-(2-(4-chlorobenzyl)-[1,4′-bipiperidin]-1′-yl)-4H-1,2,4-triazol-3-amine], the IC50 on recombinant human CHIT1 is less than 100 nM.
For `CCOC(=O)C1CC[C@H](Cc2ccc(Cl)cc2)N(C2CCN(c3nnc(N)[nH]3)CC2)C1` (stereo partly drawn) [Example 16, ethyl (6R)-1′-(5-amino-4H-1,2,4-triazol-3-yl)-6-(4-chlorobenzyl)-[1,4′-bipiperidine]-3-carboxylate], the IC50 on recombinant human CHIT1 is less than 100 nM.
For the compound `Nc1nnc(N2CCC(N3CC(C(=O)O)CC[C@@H]3Cc3ccc(Cl)cc3)CC2)[nH]1` (stereo partly drawn) [Example 17, (6R)-1′-(5-amino-4H-1,2,4-triazol-3-yl)-6-(4-chlorobenzyl)-[1,4′-bipiperidine]-3-carboxylic acid], the IC50 at recombinant human CHIT1 fell in the range of 100 to 1000 nM.
Take `CC1(C(=O)O)CC[C@H](Cc2ccc(Cl)cc2)N(C2CCN(c3nnc(N)[nH]3)CC2)C1` (stereo partly drawn) [Example 18, (6R)-1′-(5-amino-4H-1,2,4-triazol-3-yl)-6-(4-chlorobenzyl)-3-methyl-[1,4′-bipiperidine]-3-carboxylic acid]: the IC50 at recombinant human CHIT1 was in the range of 1000 to 10000 nM.
For the compound `Cc1ccc(S(=O)(=O)N2CCN(C3CCN(c4nnc(N)[nH]4)CC3)[C@@H](Cc3ccc(Cl)cc3)C2)cc1` [Example 35, (S)-5-(4-(2-(4-chlorobenzyl)-4-tosylpiperazin-1-yl)piperidin-1-yl)-4H-1,2,4-triazol-3-amine], the IC50 on recombinant human CHIT1 lay in the range of 10000 to 100000 nM.
As for `C[C@H]1CN(C2CCN(c3nnc(N)[nH]3)CC2)[C@@H](Cc2ccc(Cl)cc2)CN1S(C)(=O)=O` [Example 37, 5-(4-((2S,5S)-2-(4-chlorobenzyl)-5-methyl-4-(methylsulfonyl)piperazin-1-yl)piperidin-1-yl)-4H-1,2,4-triazol-3-amine], at recombinant human CHIT1, the IC50 lay in the range of 10000 to 100000 nM.
In the case of `COC(=O)N1C[C@H](Cc2ccc(Cl)cc2)N(C2CCN(c3nnc(N)[nH]3)CC2)C[C@@H]1C` [Example 39, methyl (2S,5S)-4-(1-(5-amino-4H-1,2,4-triazol-3-yl)piperidin-4-yl)-5-(4-chlorobenzyl)-2-methylpiperazine-1-carboxylate], the half-inhibitory concentration (IC50) at recombinant human CHIT1 was 10000 to 100000 nM.
Regarding `COC(=O)CN1C[C@H](Cc2ccc(Cl)cc2)N(C2CCN(c3nnc(N)[nH]3)CC2)C[C@@H]1C` [Example 40, methyl 2-((2S,5S)-4-(1-(5-amino-4H-1,2,4-triazol-3-yl)piperidin-4-yl)-5-(4-chlorobenzyl)-2-methylpiperazin-1-yl)acetate], the IC50 at recombinant human AMCase was less than 100 nM; at recombinant human CHIT1, 100 to 1000 nM.
As to `C[C@H]1CN(C2CCN(c3nnc(N)[nH]3)CC2)[C@@H](Cc2ccc(Cl)cc2)CN1CC(=O)O` [Example 41, 2-((2S,5S)-4-(1-(5-amino-4H-1,2,4-triazol-3-yl)piperidin-4-yl)-5-(4-chlorobenzyl)-2-methylpiperazin-1-yl)acetic acid], the IC50 at recombinant human AMCase was less than 100 nM; at recombinant human CHIT1, 100 to 1000 nM.
`Nc1nnc(N2CCC(N3C[C@@H]4CCCN4C[C@@H]3Cc3ccc(Cl)cc3)CC2)[nH]1` [Example 49, 5-(4-((3S,8aS)-3-(4-chlorobenzyl)hexahydropyrrolo[1,2-a]pyrazin-2(1H)-yl)piperidin-1-yl)-4H-1,2,4-triazol-3-amine]: the IC50 on recombinant human AMCase is less than 100 nM; on recombinant human CHIT1, 1000 to 10000 nM.
As to `C[C@H]1CN(C2CCN(c3nnc(N)[nH]3)CC2)[C@@H](Cc2ccc(Cl)cc2)C(C)(C)O1` [Example 53, 5-(4-((3S,6S)-3-(4-chlorobenzyl)-2,2,6-trimethylmorpholino)piperidin-1-yl)-4H-1,2,4-triazol-3-amine], the IC50 on recombinant human CHIT1 fell in the range of 10000 to 100000 nM.
